Test results reported in patent US20150051246A1 (priority 2013, published 2015).

Experiments:
[1] = test system: xylazine/ketamine induced α2-adrenergic receptor-mediated anesthesia; conditions: in vivo, 3 mg/kg
Description: Since emesis is a typical side-effect of PDE4 inhibitors the emetic potential of roflumilast and rolipram was investigated in parallel using the xylazine/ketamine induced α2-adrenergic receptor-mediated anesthesia test. The results confirmed that the two phosphodiesterase 4 inhibitors have different effects on emesis.

[2] = test system: 60 to 80 years old subjects (Impaired Elderly and Healthy Elderly); test: Verbal Learning Task (VLT) in 60 to 80 years old subjects, interim analysis; type: in vivo, human
Experimental: The study is conducted according to a double-blind, placebo-controlled, four-period cross-over design. Forty healthy subjects, both male and female within an age range of 60 to 80 years are planned to be included in the study in two groups: 1) 20 subjects with a memory performance between 1-2 Standard Deviation below the average for their age, gender, and educated level (Impaired Elderly) and 2) 20 subjects with age (±3 years), gender, and educational level matched (in order to speed up the study matching was stopped after the interim analysis) with an average memory performance between 0.5 Standard Deviation below and 0.5 Standard Deviation above from normative values (Healthy Elderly). Classification in terms of impaired or healthy elderly will be determined by a one-off testing of memory performance using the Rey Verbal Learning Task (Rey A; L'examen psychologique dans les cas d'encephalopathy traumatique 1958 Paris; Presses Universitaire de France; or Van der Elst et al; J Int Neuropsychol Soc 2005, 11 (3), pp 290-302) according to fully standardized procedures as applied in The Maastricht Aging Study (Jolles et al; Maastricht Aging Study; determinants of cognitive aging; Maastricht, The Netherlands, Neuropsych Publishers 1995). Normative data for each individual subject will be derived also from the Maastricht Aging Study using the regression formula as described by Van der Elst et al (Van der Elst et al; J Int Neuropsychol Soc 2005, 11 (3), pp 290-302).
All subjects within their corresponding groups (either Healthy Elderly n=20 or Impaired Elderly n=20) will be randomized in a double blind fashion to 1 of 4 treatment sequences, each sequence consisting of the following periods: A) Placebo+placebo; B) Roflumilast 100 mcg+placebo; C) Roflumilast […]+placebo and D) Roflumilast 1000 mcg (500+500 mcg) according to a computer-generated allocation schedule in a cross-over design. Between each of the four treatment sequences there will be a 12 days washout period.
Verbal learning task (VLT) The Rey VLT as modified by Riedel and colleagues (Riedel, Klaasen et al, Psychopharmacology (Berlin) 1999 Vol 141(4) pp 362-369) is used. This modified VLT maximizes the possibility of measuring enhancement rather than only impairment, by means of prolonging the list. The test consists of a list of 30 monosyllabic words (18 nouns and 12 adjectives). The words are shown on a computer screen for 1 second. Three trials with the same item sequence are presented. Each trial ends with a free recall of the words (immediate recall). Forty-five minutes after the first exposure, the subject is asked to recall as many words as possible (delayed recall). […] The words are shown on a computer screen for 2 seconds and subjects are asked to rate whether they were presented in the learning trial by a “yes/no” response. The inter-word interval is 2 seconds. 24 Hours after the immediate recall, subjects will return to the lab for a second delayed recall and recognition. […] EEG will be recorded during the immediate recall and the first recognition test on the test day. […]
An interim analysis has been performed based on the data of 9 subjects of the Impaired Elderly group and 4 subjects of the Healthy Elderly group. For this purpose, cognitive battery test scores (VLT, SMT, Stroop task and BL-VAS) and concentrations of roflumilast and roflumilast-N-oxide in plasma have been analysed and summarized by dose over each scheduled sampling time using descriptive statistics. […]

[3] = type: in vivo, human; conditions: human, in vivo
Description: An interim analysis has been performed based on the data of 9 subjects of the Impaired Elderly group and 4 subjects of the Healthy Elderly group. For this purpose, cognitive battery test scores (VLT, SMT, Stroop task and BL-VAS) and concentrations of roflumilast and roflumilast-N-oxide in plasma have been analysed and summarized by dose over each scheduled sampling time using descriptive statistics.

O=C(Nc1c(Cl)cncc1Cl)c1ccc(OC(F)F)c(OCC2CC2)c1 [roflumilast, N-(3,5-dichloropyridin-4-yl)-3-cyclopropylmethoxy-4-difluoromethoxybenzamide]
emetic potential [1]: tendency towards emetic potential
increase in number of correct words, 45 min delayed recall, compared to placebo ([2]; 100 mcg): 1.7 words
placebo-corrected fold-improvement ([2]; 100 mcg, 3rd trial, interim data elderly study): 1.16
increase in number of correct words immediately recalled, compared to placebo ([2]; 100 mcg, after 3rd trial): 1.5 words
number of words on the 3rd trial ([2]; 100 mcg, elderly subjects): 10.28 words
increase in number of correct words, 45 min delayed recall, compared to placebo ([2]; 1000 mcg): 1.6 words
exposure [3]: consistent with those previously reported
